US7309793B2, “Benzopyran derivatives substituted with a benzimidazole derivative, pharmaceutically acceptable salts therof, their preparations and pharmaceutical compositions containing them” (Dongbu Hannong Chemical Co., Ltd., priority 2003, dated 2007)
pIC50: −log10 of the molar value.

Experiments:
rat aorta = test: Vasodilating effect on blood vessel isolated from white rats (methoxamine-constricted aortic rings); details: for pIC50: isolated rat aorta constricted with methoxamine (3 μM), endothelium removed, read-out: Concentration for inhibition of constriction induced by methoxamine in rat arota (IC50); for weaker vasorelaxation effect than that of BMS-180448 (times): ratio of IC50 versus BMS-180448
Source text: White rats (350˜450 g; the Experimental Animal Team of the Korea Research Institute of Chemical Technology) were knocked to be unconscious by hitting the occipital region, sacrificed by cervical dislocation, and underwent thoracotomy. After being quickly removed, the thoracic aorta was deprived of the adipose tissue and cut into aortic rings of 3 mm width. The aorta was lightly rubbed with cotton club soaked in a modified Krebs Henseleit buffer (physiological salt solution) to remove the inner […] layer therefrom. While being hung in an organ bath containing a physiological buffer, the vascular smooth muscle was allowed to equilibrate under a resting tension of 2 g and then, stand for 1 hour at 37° C. for stabilization, supplying a carbogen consisting of 95% O2/5% CO2. Thereafter, the vascular smooth muscle was constricted with 10^−5 M phenylephrine and washed several times with physiological saline solution. The said procedure was repeated to ensure the stable reactivity of vascular smooth muscle to repetitive constriction/relaxation.
Thereafter, 3×10^−6 M methoxamine was applied to induce an intensive constriction in the vascular smooth muscle. When the vasoconstriction induced by the methoxamine was reached and maintained to a maximum, test compounds and control material were cumulatively added to the organ bath with concentration of 1, 3, 10 and 30 μM, respectively, to examine the vasodilating effect. Cromakalim and BMS-180448 (compound of <Formula 2>), known to be the first generation KATP opener with potent vasodilating effect, were used as control materials.
The change rate of constriction by the addition of the drugs compared to the maximal constriction induced by methoxamine was calculated to plot a concentration-relaxation response curve. Through a least linear regression analysis, IC50 that the drug concentration at which the vascular tissue is relaxed to 50% extent of the maximal constriction, was obtained for each drug. And the results were shown in the below Table 1.

isolated rat hearts = test: Cardioprotective effect on isolated ischemic heart models of white rats (Langendorff, global ischemia-reperfusion); details: 10 μM; for LVDP × HR (left ventricular developed pressure × heart rate), % of pre-treatment / EDP (left ventricular end diastolic pressure): 30 min global ischemia, 30 min reperfusion; for EDP (left ventricular end diastolic pressure): baseline 5 mmHg; for LDH (concentration of lactate dehydrogenase, reperfusion release): after 30 min reperfusion; for TTC (time to contracture / time to induce contraction): during 30 min global ischemia, first 5 mmHg increase in EDP
Experimental: 100 mg/kg of sodium pentobarbital was injected in abdominal cavity of white male rats (300˜450 g; the experimental animal team of the Korea Research Institute of Chemical Technology) to anesthetize them. Then, an intravenous injection of 1000 U/kg of heparin was performed before taking out heart. Particularly, cannula(PE 240) was inserted in the trachea, and artificial respiration was tried upon the rat by using a rodent ventilator. Under that condition, aortic cannula was inserted in the aorta and heart was taken out under retrograde perfusion. The extracted heart was hung on Langendorff apparatus quickly and unnecessary tissues on heart were removed. Perfusion was induced under static pressure (85 mmHg) with 37° C. modified Krebs-Henseleit bicarbonate buffer (composition <mM/L>: 116 NaCl, 4.7 KCl, 1.1 MgSO4, 1.17 KH2PO4, 24.9 NaHCO3, 2.52 CaCl2, 8.32 Glucose, 2.0 Pyruvate) saturated with 95% O2/5% CO2. A metal cannula, to which a latex balloon filled with a ethanol-distilled water mixture (1:1 vol/vol) was linked, was inserted in left ventricle through pulmonary vein. Then, left ventricular pressure transmitted through the balloon was transduced by using pressure transducer, and amplified by using isovolumetric amplifier(Plugsys bridge amplifier). Then, the pressure was recorded in a recorder (Linearcorder mark 8 WR 3500). Thereafter, heart was stabilized for 15 minutes. Then, left ventricular end diastolic pressure (LVEDP) was given by 5 mmHg and such volume of the balloon was kept throughout the experiments.
Baseline cardiac contractile function, heart rate (HR), and coronary flow (CF) were measured. Cardiac contractile function was calculated by […], yielding LVDP (left ventricular developed pressure). Double product RPP (rate-pressure product)(DP), another important parameter for indirectly assessing cardiac performance in Langendorff heart, in which cardiac output could not be measured ordinarily, was calculated by multiplying HR by LVDP. Throughout the experiment, total coronary blood flow was measured by the use of coronary flow probe (diameter: 1.0 mm) installed in aortic cannula with electromagnetic flowmeter. Temperature of heart was steadily maintained by immersing the heart at 37° C. in physiological saline solution to which 95% O2/5% CO2 was constantly supplied. After stabilization for 15 min, the hearts were pre-treated for 10 min with vehicle (0.04% DMSO) only or a compound of the present invention or the control material in the vehicle. Thereafter, cardiac contractile function, HR and CF were repeatedly measured. Global ischemia was induced by completely shutting off the perfusate for 30 min. Severity of ischemia was determined as the time to contracture (TTC, min) during global ischemia in which the first 5 mmHg increase in EDP was observed. Then, the hearts were reperfused and, 30 min later, contractile functions (LVDP, HR and CF) were repeatedly measured. After reperfusion was accomplished for 30 min, LDH (lactate dehydrogenase) was measured with a kit as a sensitive index for loss of cell viability.

Row | Structure (SMILES) | pIC50 (rat aorta) | weaker vasorelaxation effects than that of Cromakalim (times) (rat aorta; ratio of IC50 versus Cromakalim) | LVDP × HR (left ventricular developed pressure × heart rate), % of pre-treatment (isolated rat hearts) [%] | EDP (left ventricular end diastolic pressure) (isolated rat hearts) [mmHg] | LDH (concentration of lactate dehydrogenase, reperfusion release) (isolated rat hearts) [unit/g] | TTC (time to contracture / time to induce contraction) (isolated rat hearts) [min] | weaker vasorelaxation effect than that of BMS-180448 (times) (rat aorta)
1 | CC1(C)Oc2ccc(C#N)cc2[C@@H](NC(=NC#N)Nc2ccc(Cl)cc2)[C@@H]1O [BMS-180448, reference compound] | 5.86 | twenty times weaker | 67.6 | 16.5 | 17.2 | 27.8 | 
2 | CC1(C)Oc2ccc(C#N)cc2C(N2CCCC2=O)C1O (centres unmarked) [Cromakalim, reference compound] | 7.17 |  |  |  |  |  | 
3 | COC(OC)[C@@]1(C)Oc2ccc([N+](=O)[O-])cc2[C@H](n2c(=NC#N)[nH]c3ccccc32)[C@H]1O [Example 1, (2S, 3R, 4S)-6-nitro-3,4-dihydro-3-hydroxy-2-dimethoxymethyl-2-methyl-4-(2,3-dihydro-2-cyanoimino-1H-benzimidazol-1-yl)-2H-1-benzopyran] | 4.30 |  | 68.8 | 20.3 | 8.1 | 23.2 | 36
4 | COC(OC)[C@@]1(C)Oc2ccc([N+](=O)[O-])cc2[C@H](n2c(=O)[nH]c3ccccc32)[C@H]1O [Example 18, (2S, 3R, 4S)-6-nitro-3,4-dihydro-3-hydroxy-2-dimethoxymethyl-2-methyl-4-(2,3-dihydro-2-oxo-1H-benzimidazol-1-yl)-2H-1-benzopyran] |  |  | 41.5 | 29.3 | 20.4 | 24.2 | 
5 | CC1(C)Oc2ccc([N+](=O)[O-])cc2[C@H](n2c(=O)[nH]c3ccccc32)[C@H]1O [Example 20, (3R, 4S)-6-nitro-3,4-dihydro-3-hydroxy-2,2-dimethyl-4-(2,3-dihydro-2-oxo-1H-benzimidazol-1-yl)-2H-1-benzopyran] | 4.73 |  | 55.5 | 29.0 | 20.7 | 23.9 | 10
